Data: EPA's ToxRefDB 2

Key:
[1] = test system: rat; conditions: Peri- and post-natal toxicity study (Segment III), sprague dawley, Oral, Gavage/Intubation, dose end: 4 PND
[2] = test system: rat; conditions: Fertility (Segment I), sprague dawley, Oral, Gavage/Intubation, dose end: 7 GD, group: parental
[3] = test system: rabbit; conditions: Prenatal developmental toxicity study, new zealand white, Oral, Gavage/Intubation, dose end: 18 GD, group: maternal
[4] = test system: rat; conditions: Chronic toxicity, sprague dawley, Oral, Gavage/Intubation, dose end: 6 month, group: systemic
[5] = test system: mouse; conditions: Subchronic oral toxicity in rodents, cd1, Gavage/Intubation, dose end: 94 days, group: systemic
[6] = test system: mouse; conditions: Carcinogenicity; cd1; Oral; Gavage/Intubation; dose end: 2 year; group: systemic; systemic / in life observation / body weight / body weight gain + systemic / in life observation / clinical signs / [other] + systemic / in …
[7] = test system: rat; conditions: Peri- and post-natal toxicity study (Segment III), sprague dawley, Oral, Gavage/Intubation, dose end: 21 PND
[8] = test system: dog; conditions: Chronic toxicity; beagle; Oral; Capsule; dose end: 6 month; group: systemic; systemic / clinical chemistry / triglycerides / triglycerides + systemic / in life observation / body weight / body weight gain + systemic…
[9] = test system: rat; conditions: Carcinogenicity; sprague dawley; Oral; Gavage/Intubation; dose end: 2 year; group: systemic; systemic / in life observation / body weight / body weight gain + systemic / in life observation / clinical signs / [other] + systemic / in …
[10] = test system: dog; conditions: Chronic toxicity, beagle, Oral, Capsule, dose end: 52 week, group: systemic
[11] = test system: rat; conditions: Prenatal developmental toxicity study; sprague dawley; Oral; Gavage/Intubation; dose end: 15 GD; group: maternal; systemic / in life observation / clinical signs / salivation
[12] = test system: rat; conditions: Sub-acute repeat dose toxicity, sprague dawley, Oral, Gavage/Intubation, dose end: 4 week, group: systemic
[13] = test system: rabbit; conditions: Prenatal developmental toxicity study, new zealand white, Oral, Gavage/Intubation, dose end: 18 GD, group: maternal; remark: listed apart in the source
[14] = test system: rat; conditions: Prenatal developmental toxicity study; sprague dawley; Oral; Gavage/Intubation; dose end: 15 GD; group: maternal; reproductive / reproductive performance / estrous cycle / corpora lutea + reproductive / reproductive performance / implantations / …
[15] = test system: mouse; conditions: Combined chronic toxicity/carcinogenicity; b6c3f1; Oral; Feed; dose end: 24 month; group: systemic; systemic / pathology microscopic / liver / accentuated lobular pattern
[16] = test system: dog; conditions: Chronic toxicity; beagle; Oral; Gavage/Intubation; dose end: 52 week; group: systemic; systemic / in life observation / body weight / body weight gain + systemic / in life observation / clinical signs / emesis + systemic / in …
[17] = test system: rat; conditions: Subchronic oral toxicity in rodents, fischer, Feed, dose end: 90 day, group: systemic
[18] = test system: rat; conditions: Subchronic oral toxicity in rodents, sprague dawley, Injection, Intraperitoneal, dose end: 45 day, group: systemic
[19] = test system: rat; conditions: Carcinogenicity, sprague dawley, Injection, Intraperitoneal, dose end: 52 week, group: systemic
[20] = test system: mouse; conditions: Carcinogenicity, b6c3f1, Injection, Intraperitoneal, dose end: 52 week, group: systemic
[21] = test system: rat; conditions: Combined chronic toxicity/carcinogenicity; sprague dawley; Oral; Feed; dose end: 24 month; group: systemic; systemic / organ weight / liver / relative to body weight + systemic / pathology microscopic / liver / hypertrophy + systemic / pathology …
[22] = test system: mouse; conditions: Carcinogenicity, b6c3f1, Oral, Feed, dose end: 24 month, group: systemic
[23] = test system: rat; conditions: Multigenerational reproductive toxicity study, sprague dawley, Oral, Feed, dose end: 2 generation
[24] = test system: dog; conditions: Chronic toxicity; beagle; Oral; Feed; dose end: 52 week; group: systemic; systemic / clinical chemistry / alkaline phosphatase (alp/alk) / alkaline phosphatase (alp/alk) + systemic / organ weight / liver / absolute…
[25] = test system: rat; conditions: Subchronic oral toxicity in rodents, sprague dawley, Feed, dose end: 13 week, group: systemic, systemic / clinical chemistry / cholesterol / cholesterol + systemic / organ weight / liver / relative to body weight + systemic / pathology…
[26] = group: maternal, reproductive / offspring survival early / birth index / live birth index
[27] = group: parental, systemic / in life observation / clinical signs / [other] + systemic / in life observation / clinical signs / labored respiration + systemic…
[28] = group: parental, systemic / in life observation / clinical signs / [other] + systemic / in life observation / clinical signs / salivation + systemic / in …
[29] = systemic / in life observation / clinical signs / abnormal respiratory sounds + systemic / in life observation / clinical signs / urogenital…
[30] = systemic / in life observation / clinical signs / abnormal respiratory sounds + systemic / in life observation / food consumption / food …
[31] = systemic / in life observation / body weight / body weight gain + systemic / in life observation / food consumption / food consumption
[32] = systemic / in life observation / food consumption / food consumption
[33] = systemic / clinical chemistry / chloride / chloride + systemic / clinical chemistry / triglycerides / triglycerides + systemic / clinical …
[34] = systemic / clinical chemistry / triglycerides / triglycerides + systemic / in life observation / body weight / body weight gain + systemic…
[35] = systemic / clinical chemistry / calcium / calcium + systemic / clinical chemistry / cholesterol / cholesterol + systemic / clinical …
[36] = systemic / clinical chemistry / potassium / potassium + systemic / clinical chemistry / bilirubin / total bilirubin + systemic / clinical …
[37] = group: maternal, reproductive / reproductive performance / reproductive performance other / NOS
[38] = group: maternal, reproductive / reproductive performance / reproductive performance other / NOS + reproductive / offspring survival early / litter viability …
[39] = group: offspring, systemic / in life observation / body weight / offspring (pup) weight
[40] = group: parental, systemic / in life observation / clinical signs / abnormal respiratory sounds + systemic / in life observation / clinical signs / emaciation…
[41] = group: parental, systemic / in life observation / mortality / mortality
[42] = systemic / clinical chemistry / triglycerides / triglycerides + systemic / in life observation / body weight / body weight gain
[43] = systemic / clinical chemistry / potassium / potassium + systemic / clinical chemistry / sodium / sodium + systemic / in life observation / …
[44] = systemic / in life observation / clinical signs / motor activity
[45] = reproductive / reproductive performance / aborted / aborted + reproductive / reproductive performance / postimplantation loss / …
[46] = systemic / organ weight / liver / relative to body weight + systemic / organ weight / kidney / relative to body weight
[47] = systemic / in life observation / clinical signs / distended abdomens + systemic / in life observation / mortality / mortality + systemic / …
[48] = systemic / in life observation / mortality / mortality + systemic / pathology microscopic / peritoneum / sarcoma
[49] = systemic / in life observation / mortality / mortality + systemic / pathology microscopic / peritoneum / sarcoma + systemic / in life …
[50] = systemic / in life observation / mortality / mortality
[51] = systemic / pathology microscopic / peritoneum / sarcoma + systemic / in life observation / body weight / body weight + systemic / in life …
[52] = systemic / pathology gross / liver / enlarged + systemic / pathology gross / liver / mass + systemic / pathology gross / liver / nodule(s…
[53] = group: parental, systemic / in life observation / body weight / body weight + systemic / in life observation / food consumption / food consumption + systemic…

Compound: CCOC(=O)COc1ccc2c(c1)CC(NCC(O)c1cccc(Cl)c1)CC2.Cl (stereo unspecified)
- LEL [1, 26]: 200 mg/kg/day
- LOAEL [1, 26]: > 750 mg/kg/day
- NEL [1, 26]: 50 mg/kg/day
- NOAEL [1, 26]: ≥ 750 mg/kg/day
- LOAEL [1, 27]: > 750 mg/kg/day
- NOAEL [1, 27]: ≥ 750 mg/kg/day
- LEL [1, 28]: 50 mg/kg/day
- NEL [1, 28]: < 50 mg/kg/day
- LOAEL [2, 29]: > 750 mg/kg/day
- NOAEL [2, 29]: ≥ 750 mg/kg/day
- LEL [2, 30]: 50 mg/kg/day
- NEL [2, 30]: < 50 mg/kg/day
- LOAEL [3, 31]: > 500 mg/kg/day
- NOAEL [3, 31]: ≥ 500 mg/kg/day
- LEL [3, 32]: 50 mg/kg/day
- NEL [3, 32]: < 50 mg/kg/day
- LOAEL [4, 33]: > 500 mg/kg/day
- NOAEL [4, 33]: ≥ 500 mg/kg/day
- LEL [4, 34]: 20 mg/kg/day
- NEL [4, 34]: < 20 mg/kg/day
- LOAEL [5, 35]: > 500 mg/kg/day
- NOAEL [5, 35]: ≥ 500 mg/kg/day
- LEL [5, 36]: 100 mg/kg/day
- NEL [5, 36]: < 100 mg/kg/day
- LEL [6]: 25 mg/kg/day
- LOAEL [6]: > 100 mg/kg/day
- NEL [6]: < 25 mg/kg/day
- NOAEL [6]: ≥ 100 mg/kg/day
- LEL [7, 37]: 50 mg/kg/day
- NEL [7, 37]: < 50 mg/kg/day
- LOAEL [7, 38]: > 750 mg/kg/day
- NOAEL [7, 38]: ≥ 750 mg/kg/day
- LEL [7, 39]: 50 mg/kg/day
- LOAEL [7, 39]: 200 mg/kg/day
- NEL [7, 39]: < 50 mg/kg/day
- NOAEL [7, 39]: 50 mg/kg/day
- LOAEL [7, 40]: > 750 mg/kg/day
- NOAEL [7, 40]: ≥ 750 mg/kg/day
- LEL [7, 41]: 50 mg/kg/day
- NEL [7, 41]: < 50 mg/kg/day
- LEL [8]: 10 mg/kg/day
- LOAEL [8]: > 250 mg/kg/day
- NEL [8]: < 10 mg/kg/day
- NOAEL [8]: ≥ 250 mg/kg/day
- LEL [9]: 50 mg/kg/day
- LOAEL [9]: > 500 mg/kg/day
- NEL [9]: < 50 mg/kg/day
- NOAEL [9]: ≥ 500 mg/kg/day
- LEL [10, 42]: 10 mg/kg/day
- NEL [10, 42]: < 10 mg/kg/day
- LOAEL [10, 34]: > 250 mg/kg/day
- NOAEL [10, 34]: ≥ 250 mg/kg/day
- LEL [11]: 200 mg/kg/day
- LOAEL [11]: > 750 mg/kg/day
- NEL [11]: 50 mg/kg/day
- NOAEL [11]: ≥ 750 mg/kg/day
- LOAEL [12, 43]: > 500 mg/kg/day
- NOAEL [12, 43]: ≥ 500 mg/kg/day
- LEL [12, 44]: 20 mg/kg/day
- NEL [12, 44]: < 20 mg/kg/day
- LOAEL [13, 45]: > 500 mg/kg/day
- NEL [13, 45]: 50 mg/kg/day
- NOAEL [13, 45]: ≥ 500 mg/kg/day
- LEL ([13]; reproductive / reproductive performance / postimplantation loss / postimplantation loss): 160 mg/kg/day
- LEL [14]: 200 mg/kg/day
- LOAEL [14]: > 750 mg/kg/day
- NEL [14]: 50 mg/kg/day
- NOAEL [14]: ≥ 750 mg/kg/day

Compound: Oc1ccccc1-c1ccccc1 [2-Phenylphenol]
- LEL [15]: 250 mg/kg/day
- LOAEL [15]: 250 mg/kg/day
- NEL [15]: < 250 mg/kg/day
- NOAEL [15]: < 250 mg/kg/day
- LEL [16]: 300 mg/kg/day
- LOAEL [16]: 300 mg/kg/day
- NEL [16]: 100 mg/kg/day
- NOAEL [16]: 100 mg/kg/day
- LOAEL ([17]; systemic / in life observation / body weight / body weight + systemic / in life observation / body weight / body weight gain): 763 mg/kg/day
- NOAEL ([17]; systemic / in life observation / body weight / body weight + systemic / in life observation / body weight / body weight gain + systemic / in…): 377 mg/kg/day
- LEL [17, 46]: 377 mg/kg/day
- NEL [17, 46]: < 377 mg/kg/day

Compound: CC(COc1ccccc1)N(CCCl)Cc1ccccc1.Cl (stereo unspecified) [Phenoxybenzamine hydrochloride]
- LEL ([18]; systemic / in life observation / clinical signs / distended abdomens): 15 mg/kg/day
- LOAEL [18, 47]: > 30 mg/kg/day
- NEL [18, 47]: 7.5 mg/kg/day
- NOAEL [18, 47]: ≥ 30 mg/kg/day
- LEL [19, 48]: 5 mg/kg/day
- NEL [19, 48]: < 5 mg/kg/day
- LOAEL [19, 49]: > 10 mg/kg/day
- NOAEL [19, 49]: ≥ 10 mg/kg/day
- LEL [20, 50]: 12.5 mg/kg/day
- NEL [20, 50]: < 12.5 mg/kg/day
- LOAEL [20, 51]: > 25 mg/kg/day
- NOAEL [20, 51]: ≥ 25 mg/kg/day

Compound: C#CC(C)(C)NC(=O)c1cc(Cl)cc(Cl)c1 [Propyzamide]
- LEL [21]: 48.8 mg/kg/day
- LOAEL [21]: 48.8 mg/kg/day
- NEL [21]: 10.1 mg/kg/day
- NOAEL [21]: 10.1 mg/kg/day
- LOAEL ([22]; systemic / pathology gross / liver / enlarged + systemic / pathology gross / liver / mass + systemic / pathology gross / liver / nodule(s)): 75 mg/kg/day
- LEL [22, 52]: 75 mg/kg/day
- NEL [22, 52]: 15 mg/kg/day
- NOAEL [22, 52]: 15 mg/kg/day
- LEL [23, 39]: 114 mg/kg/day
- LOAEL [23, 39]: 114 mg/kg/day
- NEL [23, 39]: 15.4 mg/kg/day
- NOAEL [23, 39]: 15.4 mg/kg/day
- LEL [23, 53]: 114 mg/kg/day
- LOAEL [23, 53]: 114 mg/kg/day
- NEL [23, 53]: 15.4 mg/kg/day
- NOAEL [23, 53]: 15.4 mg/kg/day
- LEL [24]: 33.1 mg/kg/day
- LOAEL [24]: 33.1 mg/kg/day
- NEL [24]: 11.9 mg/kg/day
- NOAEL [24]: 11.9 mg/kg/day
- LEL [25]: 60 mg/kg/day
- LOAEL [25]: 60 mg/kg/day
- NEL [25]: 12.3 mg/kg/day
- NOAEL [25]: 12.3 mg/kg/day
